What was measured:
NCI-H292 = test: Antiproliferative activity against human NCI-H292 cells; assay type: functional, cell-based
[1] = target: DNA (cytosine-5)-methyltransferase 1 (Homo sapiens) (UniProt P26358); test: Inhibition of DNMT1 in human NCI-H292 cells at 50 uM after 48 hrs by Western blot analysis relative to control; assay type: cell-based
[2] = target: DNA (cytosine-5)-methyltransferase 1 (Homo sapiens) (UniProt P26358); test: Inhibition of DNMT1 in human NCI-H292 cells at 100 uM after 48 hrs by Western blot analysis relative to control; assay type: cell-based

DNA (cytosine-5)-methyltransferase 1 (Homo sapiens), sequence (P26358 whole entry): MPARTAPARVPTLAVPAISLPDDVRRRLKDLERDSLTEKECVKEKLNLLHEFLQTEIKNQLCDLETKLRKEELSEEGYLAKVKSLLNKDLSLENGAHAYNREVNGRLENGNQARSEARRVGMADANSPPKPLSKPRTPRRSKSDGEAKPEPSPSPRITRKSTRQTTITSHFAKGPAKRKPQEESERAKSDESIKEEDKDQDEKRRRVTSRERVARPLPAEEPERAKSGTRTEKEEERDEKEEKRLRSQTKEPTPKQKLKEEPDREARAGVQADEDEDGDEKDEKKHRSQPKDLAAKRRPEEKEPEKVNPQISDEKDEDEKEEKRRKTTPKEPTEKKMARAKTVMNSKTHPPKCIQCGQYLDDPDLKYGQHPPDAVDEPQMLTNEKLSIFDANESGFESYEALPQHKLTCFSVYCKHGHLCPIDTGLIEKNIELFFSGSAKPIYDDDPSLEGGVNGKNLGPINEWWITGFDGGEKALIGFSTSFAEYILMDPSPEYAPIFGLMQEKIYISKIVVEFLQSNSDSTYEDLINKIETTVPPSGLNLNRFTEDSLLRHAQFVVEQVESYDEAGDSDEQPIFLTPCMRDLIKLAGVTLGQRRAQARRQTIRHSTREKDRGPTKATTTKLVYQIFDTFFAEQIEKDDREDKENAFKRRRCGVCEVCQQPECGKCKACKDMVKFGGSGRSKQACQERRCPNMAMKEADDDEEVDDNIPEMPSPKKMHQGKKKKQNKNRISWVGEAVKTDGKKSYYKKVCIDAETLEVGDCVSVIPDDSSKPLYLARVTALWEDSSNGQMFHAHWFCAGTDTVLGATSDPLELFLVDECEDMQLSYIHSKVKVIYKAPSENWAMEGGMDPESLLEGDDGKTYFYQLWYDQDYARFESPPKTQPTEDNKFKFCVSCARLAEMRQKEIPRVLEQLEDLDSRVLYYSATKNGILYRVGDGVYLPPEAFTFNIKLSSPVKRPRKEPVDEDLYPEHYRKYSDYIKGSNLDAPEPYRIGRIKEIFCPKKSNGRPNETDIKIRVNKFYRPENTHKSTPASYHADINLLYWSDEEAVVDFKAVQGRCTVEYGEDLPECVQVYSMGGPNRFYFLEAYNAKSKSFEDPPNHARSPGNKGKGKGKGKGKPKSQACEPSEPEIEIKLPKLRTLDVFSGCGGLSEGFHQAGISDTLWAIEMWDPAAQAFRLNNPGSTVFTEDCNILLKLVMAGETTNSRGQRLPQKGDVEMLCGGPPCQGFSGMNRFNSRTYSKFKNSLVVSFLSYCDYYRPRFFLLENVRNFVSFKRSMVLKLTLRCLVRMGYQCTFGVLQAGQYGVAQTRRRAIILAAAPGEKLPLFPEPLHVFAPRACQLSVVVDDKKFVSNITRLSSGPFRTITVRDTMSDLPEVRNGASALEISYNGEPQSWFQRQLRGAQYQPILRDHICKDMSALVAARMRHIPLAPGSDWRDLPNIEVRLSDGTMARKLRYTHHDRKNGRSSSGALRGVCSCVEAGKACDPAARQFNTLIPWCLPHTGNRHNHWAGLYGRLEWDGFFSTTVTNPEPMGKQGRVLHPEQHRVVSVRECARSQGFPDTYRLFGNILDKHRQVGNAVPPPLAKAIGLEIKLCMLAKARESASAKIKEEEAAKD

| Compound | IC50 (NCI-H292) [µM] | fold change (FC) [1] | fold change (FC) [2] |
| --- | --- | --- | --- |
| COc1cc(/C=C2\NC(=O)N(c3ccc(Cl)cc3)C2=O)cc(OC)c1OC | > 200 | – | – |
| O=C(Nc1ccc(Cl)cc1)c1ccc(N2C(=O)N/C(=C\c3ccc(O)cc3)C2=O)cc1 | > 200 | – | – |
| O=C1N/C(=C\c2ccc(O)cc2)C(=O)N1c1ccc(I)cc1 | 25.5 | 0.01 | – |
| O=C1/C(=C/c2ccc(O)cc2)NC(=S)N1c1ccc(I)cc1 | 19.7 | – | – |
| Cc1ccc(N2C(=O)N/C(=C\c3ccc(O)cc3)C2=O)cc1 | 27.9 | 0.32 | – |
| O=C(O)c1ccc(N2C(=O)N/C(=C\c3ccc(O)cc3)C2=O)cc1 | > 200 | – | – |
| O=C(NCC1CCCCC1)c1cccc(N2C(=O)N/C(=C\c3ccc(O)cc3)C2=O)c1 | 17.9 | 0.25 | – |
| O=C(NCc1ccccc1)c1ccc(N2C(=O)N/C(=C\c3ccc(O)cc3)C2=O)cc1 | > 200 | – | – |
| O=C1N/C(=C\c2ccc(O)cc2)C(=O)N1c1ccc(Cl)cc1 | 41.3 | – | 1.08 |
| O=C1N/C(=C\c2ccc(O)cc2)C(=O)N1c1ccc(Br)cc1 | 69.9 | – | – |
| O=C(c1ccc(N2C(=O)N/C(=C\c3ccc(O)cc3)C2=O)cc1)N1CCCC1 | > 200 | – | – |
| O=C(NCC1CCCCC1)c1ccc(N2C(=O)N/C(=C\c3ccc(O)cc3)C2=O)cc1 | > 200 | – | – |
| O=C1N/C(=C\c2ccc(Cl)cc2)C(=O)N1c1ccc(Cl)cc1 | 35.6 | 0.99 | – |

Now from value to compound:

| IC50 (NCI-H292) [µM] | fold change (FC) [1] | fold change (FC) [2] | Compound |
| --- | --- | --- | --- |
| > 200 | – | – | CCOC(=O)c1ccc(N2C(=O)N/C(=C\c3ccc(O)cc3)C2=O)cc1 |
| > 200 | – | – | O=C(O)c1cccc(N2C(=O)N/C(=C\c3ccc(O)cc3)C2=O)c1 |
| 23.5 | 0.27 | – | O=C(NCc1ccccc1)c1cccc(N2C(=O)N/C(=C\c3ccc(O)cc3)C2=O)c1 |
| 46.6 | – | – | O=C1N/C(=C\c2ccc(Br)cc2)C(=O)N1c1ccc(Cl)cc1 |
| > 200 | – | – | COc1cccc(N2C(=O)N/C(=C\c3ccc(O)cc3)C2=O)c1 |
| 125 | – | – | O=C(Nc1ccc(Cl)cc1)c1cccc(N2C(=O)N/C(=C\c3ccc(O)cc3)C2=O)c1 |
| 32.1 | 1.19 | – | COc1ccc(/C=C2\NC(=O)N(c3ccc(Cl)cc3)C2=O)cc1 |
| 28.5 | – | – | O=C1/C(=C/c2ccc(O)cc2)NC(=S)N1c1ccc(Cl)cc1 |
| > 200 | – | – | O=C1N/C(=C\c2ccc(O)cc2)C(=O)N1c1cccc(Br)c1 |
| > 200 | – | – | O=C1N/C(=C\c2ccc(O)cc2)C(=O)N1c1cccc(I)c1 |
| > 200 | – | – | O=C1N/C(=C\c2ccc3ccccc3c2)C(=O)N1c1ccc(Cl)cc1 |
| > 200 | – | – | O=C(c1cccc(N2C(=O)N/C(=C\c3ccc(O)cc3)C2=O)c1)N1CCCC1 |
| > 200 | – | – | Cc1cccc(N2C(=O)N/C(=C\c3ccc(O)cc3)C2=O)c1 |
| > 200 | – | – | COc1ccc(N2C(=O)N/C(=C\c3ccc(O)cc3)C2=O)cc1 |

Reference: ChEMBL document CHEMBL3763036, “Structural optimization of non-nucleoside DNA methyltransferase inhibitor as anti-cancer agent” (Bioorg Med Chem Lett, 2016)
